Experimental findings from patent publication US20050255163A1, “Co-grinding process for the preparation of a ternary composition” (priority 2002, published 2005) are described below.

Each structure is given as a SMILES string. Values after ≈ are worked out from the molar mass of the structure shown.

Format in all cases: physicochemical
A short description of data set [1]: DSC enthalpy of fusion and percentage residual crystallinity of co-ground compositions. The note with it: enthalpy of fusion of the active substance as such, before co-grinding. The source says: The compositions obtained by operating according to the examples reported below have been characterised by DSC and from the enthalpy of fusion the percentage residual crystallinity has been calculated.

The nature of data set [2]: Solubilisation kinetics under non sink conditions. The note with it: thermodynamic from solid, in 2 minutes, read-out: concentration of DHEA reached (solubilisation kinetics, oversaturation). The protocol: (§1) The dissolution speed of the DHEA from the ternary composition is markedly greater with respect to that of the DHEA as such, reaching 70% release after 15 minutes and 90% after 60 minutes, against the respective 9% and 20% for DHEA as such. Regarding the kinetics, in the ternary composition, the oversaturation reached by DHEA, which reaches a concentration of over 80 μg/ml in 2 minutes against around 50 μg/ml of DHEA as such, is evident.
(§2) Furthermore, the percentage of active substance released under sink conditions and the solubilisation kinetics under non sink conditions have been determined.

The nature of data set [3]: Percentage of active substance released under sink conditions (dissolution speed). The procedure: as §1, with “In FIGS. 5 and 6 are reported respectively the dissolution speed curves under sink conditions (% age of active substance released against time) and the to solubilisation kinetics curves under non sink conditions (concentration of active substance against time) of a hydrophobic drug (DHEA)/hydrophilic carrier combination. The” for “The”
as §2

Regarding `C[C@]12CC[C@H](O)CC1=CC[C@@H]1[C@@H]2CC[C@]2(C)C(=O)CC[C@@H]12` [DHEA, dehydroepiandrosterone], the “Active Substance Enthalpy” value in data set [1] amounted to 100 J/g. Further, the solubility kinetic at 2 min in data set [2] is around 0.05 mg/mL (≈ 173 µM). The “percentage of active substance (DHEA) released” value is recorded as 9% in data set [3] (after 15 minutes) and 20% in data set [3] (after 60 minutes).

For the molecule `CC(=O)OCC(=O)[C@@]1(O)CC[C@H]2[C@@H]3CCC4=CC(=O)CC[C@]4(C)[C@H]3[C@@H](O)C[C@@]21C` [HCA, hydrocortisone acetate], the “Active Substance Enthalpy” value in data set [1] is given as 117.9 J/g.

Turning to `CC(=O)N[C@@H](CS)C(=O)O` [NAC, N-acetyl cystein], the “Active Substance Enthalpy” value in data set [1] is recorded as 192.9 J/g.

With `Oc1ccc(C=Cc2cc(O)cc(O)c2)cc1` [Resveratrol, resveratrol], in data set [1], the “Active Substance Enthalpy” value turned out to be 317.7 J/g.

Turning to `Cc1cc(O)c(C2CC3CCC2(C)C3(C)C)cc1C` (centres unmarked) [Xibornol, xibornol], in data set [1], the “Active Substance Enthalpy” value amounted to 92.8 J/g.
